What was measured:
[1] = Buffer conductivity and pH measurements; assay type: physicochemical; parameters: conductivity: unit not given here; conditions: for conductivity: RT; for pH: in water at room temperature
Procedure: Buffer Conductivity and pH Measurements—The conductivities of test buffer solutions utilized for transport and hybridization were measured at RT using an Accumet 1.0 cm^−1 glass conductivity cell connected to an Accumet Model 50 pH/Ion/Conductivity meter (Fisher Scientific). Buffer pH values were obtained using an Accu-pHast variable temperature combination electrode and the same model meter.

[2] = tested on: btrRCA5 to ATA5 capture oligonucleotide; assay: Accumulation and electronic hybridization in test buffers; conditions: for hybridization efficiency: [(specific hybridization)/(transported)] × 100; for transported: fluorescent signal at completion of electronic targeting; for transported / specific hybridization: value +/− SEM, 50 mM buffer; for support of sequence specific electronic hybridization: in words
Procedure: Microelectronic Chips, Permeation Layer and Instrumentation—These have been described previously with the following exception. The permeation layer employed herein has an underlayer of agarose beneath the top streptavidin-containing agarose layer (approximately one micron in total thickness). To make the underlayer, […] glyoxal agarose (2%) was spun on at 2000 rpms for 20 sec prior to the application of the streptavidin-agarose layer. In brief, the 5580 series APEX chip used for these experiments consists of a 5×5 array of […] circular microelectrodes with […] microelectrodes at each corner of the array. Chips were mounted on a micromanipulator stage and the microelectrodes activated by a power supply and appropriately controlled relay switches. Fluorescently labeled oligonucleotides on the chip were visualized using oblique illumination with two 594 nm HeNe lasers and the images were quantified using either NIH Image or IPLab Spectrum software packages.
Accumulation and Hybridization—Two biotinylated capture oligonucleotides, ATA5 and ATA4 were electronically transported and localized at adjacent microelectrodes. The solution was removed and the chip washed 3-4× in test buffer. Buffers employed in these studies are listed in Table 3 and were utilized at the listed pH values and concentrations presented.
The L-isomers of amino acids were used, unless otherwise noted. The chip was equilibrated in test buffer for 5-10 min. Then fresh buffer containing 10 nM BODIPY-Texas Red labeled RCA5 (btrRCA5), an oligonucleotide complementary to ATA5 but not ATA4 (RS paper) was applied.
The […] microelectrodes were employed as cathodes and one microelectrode within the array used as the corresponding anode. Accumulation was assessed by sourcing a 500 nA constant current to individual microelectrodes for 30 sec and monitoring the accumulation of fluorescence at the positively-biased (anode) site in the microelectrode array. Signal arising from non-fluorescent sources (ie. thermal noise, etc.) was subtracted. Experiments examining the effect of different currents upon signal accumulation were conducted in a similar fashion except that the applied current varied from 100 nA to 1 mA. […] For the comparison between conductivities of various buffers, the data is presented as fold increase over initial fluorescence to account for chip-to-chip variation as well as laser illumination variations in signal levels. For other experiments, the data is presented as attomol product versus time, after converting^2 the observed fluorescence intensity to moles of labeled oligonucleotide.
Following accumulation at one microelectrode location, the buffer was removed and fresh buffer containing btrRCA5 applied. An adjacent microelectrode was then sourced in a similar fashion. Upon completion, the buffer was removed and the chip washed 5-7× with test buffer without btrRCA5. The pair of previously targeted microelectrodes were then illuminated and the fluorescence present at each site quantified. Control experiments utilized a bodipy-Texas Red labeled oligonucleotide complementary to ATA4 to verify the integrity and concentration of the ATA4 capture oligonucleotide. Percent hybridization efficiency was calculated as follows: (complementary oligonucleotide signal−noncomplementary signal)/(signal present immediately prior to the end of the applied current)×100.

[3] = cited from earlier work; for pl: Table 3
[4] = Conductivity measurements of transport buffers; assay type: physicochemical; conditions: for Average/Std. Deviation / Measurement 1 / Measurement 2 / Measurement 3: conductivity
[5] = tested on: btr-RCA5 fluorescent DNA probe; assay: Fluorescent DNA checkerboard addressing; conditions: bias reversed every 6 seconds, 80 micron microlocations
[6] = tested on: Reporter DNA to DNA1 or PNA1 capture; assay: Hybridization of phosphodiester-linked oligonucleotides versus PNA analogues; conditions: 50 mM buffer
DNA = DNA transport (accumulation) on the APEX chip; conditions: in words, same field conditions
[7] = Buffer capacity, pH and conductivity of buffers used on the APEX chip; conditions: for PH: NaPO4: 20 mM adjusted to pH 7.4

Molecule: Cn1cncc1C[C@H](N)C(=O)O [1(π)-methylhistidine]
- conductivity ([1]; 50 mM): 117 +/− 2.8
- pH ([1]; 50 mM): 7.59
- hybridization efficiency [2]: 21.3
- transported [2]: 141 +/− 20
- specific hybridization [2]: 30.0 +/− 5.0 attomol
- pl [3]: 7.54

Molecule: Cn1cnc(C[C@H](N)C(=O)O)c1 [3(τ)-methylhistidine]
- conductivity ([1]; 50 mM): 39.4 +/− 0.4
- pH ([1]; 50 mM): 7.44
- hybridization efficiency [2]: 20.8
- transported [2]: 259 +/− 48
- specific hybridization [2]: 54.0 +/− 14.8 attomol
- pl [3]: 7.52

Molecule: O=C([O-])CC(O)(CC(=O)[O-])C(=O)[O-].[Na+].[Na+].[Na+] [3.3 mM NaCitrate, sodium citrate]
- Average/Std. Deviation [4]: 986 +/− 38.1 μS/cm
- Measurement 1 [4]: 964 μS/cm
- Measurement 2 [4]: 1.03 mS/cm
- Measurement 3 [4]: 964 μS/cm
- checkerboard addressing and concentration of fluorescent DNA probe [5]: Rapid (6 second) checkerboard addressing and concentration of the btr-RCA5 fluorescent DNA probe was demonstrated

Molecule: O=C([O-])C(=O)[O-].[Na+].[Na+] [5 mM NaOxalate]
- Average/Std. Deviation [4]: 1.06 +/− 0.055 mS/cm
- Measurement 1 [4]: 1.02 mS/cm
- Measurement 2 [4]: 1.03 mS/cm
- Measurement 3 [4]: 1.12 mS/cm

Molecule: O=C([O-])CCC(=O)[O-].[Na+].[Na+] [5 mM NaSuccinate, sodium succinate]
- checkerboard addressing and concentration of fluorescent DNA probe [5]: Rapid (6 second) checkerboard addressing and concentration of the btr-RCA5 fluorescent DNA probe was demonstrated

Molecule: [Cl-].[Cl-].[Mg+2] [10 mM MgCl2, MgCl2]
- Average/Std. Deviation [4]: 2.03 +/− 0.09 mS/cm
- Measurement 1 [4]: 1.95 mS/cm
- Measurement 2 [4]: 2.02 mS/cm
- Measurement 3 [4]: 2.13 mS/cm
- Average/Std. Deviation ([4]; listed as 0.1 mM MgCl2): 17.3 +/− 0.87 μS/cm
- Measurement 1 ([4]; listed as 0.1 mM MgCl2): 16.9 μS/cm
- Measurement 2 ([4]; listed as 0.1 mM MgCl2): 16.7 μS/cm
- Measurement 3 ([4]; listed as 0.1 mM MgCl2): 18.3 μS/cm
- Average/Std. Deviation ([4]; listed as 1 mM MgCl2): 186 +/− 18.8 μS/cm
- Measurement 1 ([4]; listed as 1 mM MgCl2): 174 μS/cm
- Measurement 2 ([4]; listed as 1 mM MgCl2): 208 μS/cm
- Measurement 3 ([4]; listed as 1 mM MgCl2): 177 μS/cm

Molecule: CC(=O)[O-].[Na+] [10 mM NaAcetate]
- Average/Std. Deviation [4]: 934 +/− 43.5 μS/cm
- Measurement 1 [4]: 901 μS/cm
- Measurement 2 [4]: 917 μS/cm
- Measurement 3 [4]: 983 μS/cm

Molecule: [Cl-].[Na+] [10 mM NaCl, NaCl]
- Average/Std. Deviation [4]: 1.12 +/− 0.057 mS/cm
- Measurement 1 [4]: 1.07 mS/cm
- Measurement 2 [4]: 1.10 mS/cm
- Measurement 3 [4]: 1.18 mS/cm
- Average/Std. Deviation ([4]; listed as 0.1 mM NaCl): 9.43 +/− 0.93 μS/cm
- Measurement 1 ([4]; listed as 0.1 mM NaCl): 8.80 μS/cm
- Measurement 2 ([4]; listed as 0.1 mM NaCl): 8.98 μS/cm
- Measurement 3 ([4]; listed as 0.1 mM NaCl): 10.5 μS/cm
- Average/Std. Deviation ([4]; listed as 1 mM NaCl): 112.7 +/− 2.08 μS/cm
- Measurement 1 ([4]; listed as 1 mM NaCl): 112 μS/cm
- Measurement 2 ([4]; listed as 1 mM NaCl): 115 μS/cm
- Measurement 3 ([4]; listed as 1 mM NaCl): 111 μS/cm

Molecule: NC(CO)(CO)CO [50 mM TRIS, TRIS]
- Average/Std. Deviation [4]: 3.35 +/− 0.19 mS/cm
- Measurement 1 [4]: 3.50 mS/cm
- Measurement 2 [4]: 3.14 mS/cm
- Measurement 3 [4]: 3.40 mS/cm
- Average/Std. Deviation ([4]; listed as 10 mM TRIS): 572 +/− 10.5 μS/cm
- Measurement 1 ([4]; listed as 10 mM TRIS): 572 μS/cm
- Measurement 2 ([4]; listed as 10 mM TRIS): 562 μS/cm
- Measurement 3 ([4]; listed as 10 mM TRIS): 583 μS/cm

Molecule: N[C@H](Cc1c[nH]cn1)C(=O)O [D-histidine]
- conductivity ([1]; 50 mM): 57.1 +/− 0.3
- pH ([1]; 50 mM): 7.70
- hybridization efficiency [2]: 24.3
- transported [2]: 490 +/− 50
- specific hybridization [2]: 119 +/− 11.8 attomol
- pl [3]: 7.47

Molecule: NCCCC(=O)O [GABA, g-amino-butyric acid]
- conductivity ([1]; 50 mM): 5.6 +/− 0.6
- pH ([1]; 50 mM): 6.76
- support of sequence specific electronic hybridization [2]: neither GABA, b-alanine, nor glycine was capable of supporting sequence specific hybridization
- DNA:DNA hybridization ([6]; 200 nA): no hybridization was observed
- PNA:DNA hybridization ([6]; 200 nA): Hybridization in GABA was seen
- hybridization with either PNA:DNA or DNA:DNA duplexes ([6]; 500 nA): lack of hybridization
- pl [3]: 7.30

Molecule: N[C@@H](Cc1c[nH]cn1)C(=O)O [L-histidine]
- conductivity ([1]; 50 mM): 60.1 +/− 0.1
- pH ([1]; 50 mM): 7.65
- non-specific signal as compared to the amount of material transported [2]: 2.2%
- hybridization efficiency [2]: 14.6
- transported [2]: 533 +/− 65
- specific hybridization [2]: 78.0 +/− 9.1 attomol
- pl [3]: 7.47

Molecule: O=P(O)(O)O [NaPO4, Sodium Phosphate]
- conductance [4]: ~2.9 mS/cm
- Average/Std. Deviation ([4]; listed as 1 mM NaPO4): 128.7 +/− 7.0 μS/cm
- Measurement 1 ([4]; listed as 1 mM NaPO4): 122 μS/cm
- Measurement 2 ([4]; listed as 1 mM NaPO4): 128 μS/cm
- Measurement 3 ([4]; listed as 1 mM NaPO4): 136 μS/cm
- Average/Std. Deviation ([4]; listed as 10 mM NaPO4): 1.44 +/− 0.04 mS/cm
- Measurement 1 ([4]; listed as 10 mM NaPO4): 1.40 mS/cm
- Measurement 2 ([4]; listed as 10 mM NaPO4): 1.44 mS/cm
- Measurement 3 ([4]; listed as 10 mM NaPO4): 1.48 mS/cm
- Average/Std. Deviation ([4]; listed as 20 mM NaPO4): 2.90 +/− 0.11 mS/cm
- Measurement 1 ([4]; listed as 20 mM NaPO4): 2.90 mS/cm
- Measurement 2 ([4]; listed as 20 mM NaPO4): 2.79 mS/cm
- Measurement 3 ([4]; listed as 20 mM NaPO4): 3.00 mS/cm
- transport (DNA): fair transport
- conductivity [7]: 1,400.0 μS
- PH [7]: 7.4

Molecule: NCCS(=O)(=O)O [Taurine]
- transport (DNA): excellent transport
- conductivity [7]: 4.5 μS
- PH [7]: 4.6

Molecule: NCCC(=O)N[C@@H](Cc1cnc[nH]1)C(=O)O [carnosine]
- conductivity ([1]; 50 mM): 74.5 +/− 5.5
- pH ([1]; 50 mM): 8.07
- hybridization efficiency [2]: 26.1
- transported [2]: 129 +/− 45
- specific hybridization [2]: 33.7 +/− 12.1 attomol
- pl [3]: 8.17

Molecule: Cc1cc(C)nc(C)c1 [collidine]
- hybridization efficiency [2]: 3.7
- transported [2]: 382 +/− 63
- specific hybridization [2]: 14.1 +/− 4.6 attomol

Molecule: N[C@@H](CCC(=O)O)C(=O)O [glutamic acid]
- pI [3]: 3.22

Molecule: NCC(=O)O [glycine]
- conductivity ([1]; 50 mM): 2.5 +/− 0.2
- pH ([1]; 50 mM): 6.01
- conductivity ([1]; 250 mM): 7.8 +/− 0.5
- pH ([1]; 250 mM): 6.11
- support of sequence specific electronic hybridization [2]: neither GABA, b-alanine, nor glycine was capable of supporting sequence specific hybridization
- pl [3]: 5.97

Molecule: c1ccncc1 [pyridine]
- conductivity ([1]; 50 mM): 5.0 +/− 0.8
- pH ([1]; 50 mM): 8.17
- transported [2]: 764 +/− 66
- specific hybridization [2]: 12.8 +/− 4.2 attomol

Molecule: NCCC(=O)O [β-Alanine]
- conductivity ([1]; 50 mM): 3.6 +/− 0.6
- pH ([1]; 50 mM): 6.71
- transport (DNA): excellent transport
- support of sequence specific electronic hybridization [2]: neither GABA, b-alanine, nor glycine was capable of supporting sequence specific hybridization
- pK1 ([3]; Table 2): pK1 - 3.6
- pK2 ([3]; Table 2): pK2 - 10.2
- pl [3]: 6.90
- conductivity [7]: 10.0 μS
- PH [7]: 7.3

Molecule: Tris-Borate [100 mM Tris-Borate]
- conductivity [4]: 694 μS/cm

Molecule: water [Milli-Q water]
- checkerboard addressing and concentration of fluorescent DNA probe [5]: Rapid (6 second) checkerboard addressing and concentration of the btr-RCA5 fluorescent DNA probe was demonstrated
